Patent publication US10973801B2, “Capsid assembly modulator dosing regimen” (Janssen Sciences Ireland Unlimited Company, priority 2018, dated 2021)
“And” between values parts separate entries of the source, which are not always exact repeats. Identical values can stand only once.

Tests used:
[1] = Part 1: tolerability of Compound A in healthy subjects (sessions 1-7); assay type: in vivo, human; conditions: single doses up to 600 mg, multiple doses 150 mg for two days then 100 mg once a day for 10 days
[2] = Safety and tolerability of single ascending doses in healthy Japanese volunteers; assay type: in vivo, human
Method: A double-blind, placebo-controlled study was done to assess the safety, tolerability, and pharmacokinetics (PK) of Compound A. Thirty-two healthy adult Japanese volunteers were randomized into four cohorts. The volunteers were randomized 3:1 to receive a single dose of Compound A or placebo in a fasted state (see FIG. 4). The safety, tolerability and PK plasma profiles of Compound A were assessed after each dose. Full plasma PK profiles were determined up to 28 days after each single dose of Compound A. Urinary elimination was assessed in Cohort C (see FIG. 4) for 7 day. […] The treatment emergent adverse events (TEAEs) reported reported were hiccups, upper respiratory tract infection, nasal congestion, and cough. […] No significant laboratory abnormalities were discovered, most laboratory abnormalities were Grade 1.

[3] = tested on: HBV DNA; assay: Plasma HBV DNA in treatment naïve chronic hepatitis B patients; assay type: in vivo, hepatitis B virus; conditions: for HBV DNA Day 29 Mean Change from Baseline: N 8; for mean reduction in plasma HBV DNA levels from baseline: after 28 days
Source text: Serum HBV DNA quantitation can be performed according to methods known in the art, for example, using the polymerase chain reaction (PCR)-based assay COBAS® TAQMAN® HBV Test v2.0 (Roche Diagnostics), which has been validated to quantify HBV DNA from serum samples for diverse HBV genotypes (A-H) including pre-core mutant HBV strains, with a reported lower limit of detection of 35 IU/mL and a linear dynamic range of quantitation of 1.7×10^2 to 8.5×10^8 IU/mL IU/mL, using the WHO pooled serum reference standard for quantitation.
(§1) In part 2 of this study (FIG. 1, sessions 8-9), the objective was to evaluate the safety, PK, and antiviral activity of Compound A in treatment naïve, chronic hepatitis B patients over a 28-day treatment period. The patient criteria were: • HBeAg-positive or negative • Plasma HBV DNA>2.0 log 10 IU/mL • ALT/AST<2.5×ULN • METAVIR stage<F3. 1.1 Patient Baseline Characteristics
HBV DNA was assessed for each patient weekly during this study (see FIG. 3). A mean reduction in plasma HBV DNA levels of 2.16 (±0.49 SD) log10 IU/mL (25 mg Compound A) and 2.89 (±0.48 SD) log10 IU/mL (75 mg Compound A) from baseline was observed after 28 days. Three patients dosed with 75 mg QD achieved HBV DNA below the level of quantification of the HBV DNA assay while none in the 25 mg Compound A group achieved this. A more pronounced and consistent decline in HBV DNA was observed across patients in the 75 mg group compared with the 25 mg group.

[4] = Pharmacokinetics of Compound A in chronic HBV patients, 28 day treatment; assay type: in vivo, human
Source text: as §1
The exposure (Cmax, AUC) increased in a dose-dependent manner with time-linear PK. The pharmacokinetics of Compound A were not markedly different between healthy volunteers and patients. Mean Compound A exposures in patients with CHB could be predicted from data in healthy volunteers. Mean (±SD) exposure in the 75 mg arm was within 90% prediction interval. […] Apparent clearance was low and similar in the two dosing groups (1 and 0.9 L/h at 25 mg and 75 mg, respectively).

## C[C@H](NS(=O)(=O)c1cc(C(=O)Nc2ccc(F)c(C#N)c2)n(C)c1)C(F)(F)F [Compound A]
[1]
  tolerability: well tolerated
[2]; 25 mg single dose (n = 6)
  Deaths: 0
  Grade 2 AEs: Bilirobin increased: 0
  Grade 2 AEs: Cholesterol increased: 0
  Grade 2 AEs: Fibrinogen decreased: 0
  Grade 2 AEs: Leukocytes decreased: 0
  Grade 2 AEs: Triglycerides increased: 1
  SAEs: 0
  Treatment-emergent AEs Related to Compound A: 0
  Volunteers with ≥0.1 AE (treatment-emergent AEs): 0
[2]; 150 mg single dose (n = 6)
  Deaths: 0
  Grade 2 AEs: Bilirobin increased: 0
  Grade 2 AEs: Cholesterol increased: 0
  Grade 2 AEs: Fibrinogen decreased: 0
  Grade 2 AEs: Leukocytes decreased: 0
  Grade 2 AEs: Triglycerides increased: 0
  SAEs: 0
  Treatment-emergent AEs Related to Compound A: 0
  Volunteers with ≥0.1 AE (treatment-emergent AEs): 2
[2]; 300 mg single dose (n = 6)
  Deaths: 0
  Grade 2 AEs: Bilirobin increased: 0
  Grade 2 AEs: Cholesterol increased: 0
  Grade 2 AEs: Fibrinogen decreased: 0
  Grade 2 AEs: Leukocytes decreased: 0
  Grade 2 AEs: Triglycerides increased: 1
  SAEs: 0
  Treatment-emergent AEs Related to Compound A: 0
  Volunteers with ≥0.1 AE (treatment-emergent AEs): 0
[2]; 500 mg single dose (n = 6)
  Deaths: 0
  Grade 2 AEs: Bilirobin increased: 0
  Grade 2 AEs: Cholesterol increased: 0
  Grade 2 AEs: Fibrinogen decreased: 0
  Grade 2 AEs: Leukocytes decreased: 0
  Grade 2 AEs: Triglycerides increased: 0
  SAEs: 0
  Treatment-emergent AEs Related to Compound A: 0
  Volunteers with ≥0.1 AE (treatment-emergent AEs): 2
[2]; Total (n = 32)
  Deaths: 0
  Grade 2 AEs: Bilirobin increased: 0
  Grade 2 AEs: Cholesterol increased: 0
  Grade 2 AEs: Fibrinogen decreased: 0
  Grade 2 AEs: Leukocytes decreased: 0
  Grade 2 AEs: Triglycerides increased: 2
  SAEs: 0
  Treatment-emergent AEs Related to Compound A: 0
  Volunteers with ≥0.1 AE (treatment-emergent AEs): 4
[2]; single dose 25-500 mg, fasted
  Grade 3 or 4 laboratory abnormalities: No Grade 3 or 4 abnormalities were reported
  SAEs and premature discontinuation for an AE: No volunteers experienced an SAE or prematurely discontinued the study for an AE
  severity of treatment emergent adverse events (TEAEs): All TEAEs were mild
  tolerability: well tolerated
[3]; 25 mg QD
  HBV DNA Day 29 Mean Change from Baseline: −2.16 log10 IU/mL
[3]; 25 mg
  mean reduction in plasma HBV DNA levels from baseline: 2.16 (±0.49 SD) log10 IU/mL and 2.16 (±0.49) log10 IU/mL
[3]; 75 mg QD
  HBV DNA Day 29 Mean Change from Baseline: −2.89 log10 IU/mL
[3]; 75 mg
  mean reduction in plasma HBV DNA levels from baseline: 2.89 (±0.48 SD) log10 IU/mL and 2.89 (±0.48) log10 IU/mL
[4]; 25 mg
  Apparent clearance: 1 L/h
  Mean dose normalized AUC 0-24 h: 1109 ng·h/mL
  Mean dose normalized Cmax at steady state: 56.6 ng/mL
[4]; 25 mg and 75 mg arms
  dose proportionality of pharmacokinetics: dose-proportional
[4]; 75 mg
  Apparent clearance: 0.9 L/h
  Mean dose normalized AUC 0-24 h: 1109 ng·h/mL
  Mean dose normalized Cmax at steady state: 53.2 ng/mL
